Assay results taken from patent US20220257503A1, “Surface Modified Gas Vesicles, Preparation and Applications thereof” (THE HONG KONG POLYTECHNIC UNIVERSITY, priority 2019, published 2022).

What was measured:
[1] = system: SCC7 tumor-bearing nude mice; assay: Biodistribution by NIR fluorescence imaging in tumor-bearing mice; assay type: in vivo
Experimental: Animal experiments were conducted under protocols approved by Animal Care and Use Committee (CC/ACUCC) of Hong Kong Polytechnic University. Suspension of 4×10^6 SCC7 cells in PBS (80 μL) was injected to subcutaneous sites in athymic nude mice (seven weeks old, female, 20-24 g). When the tumor size (in the right leg region) reached average size of 120 mm^3, mice were randomly allocated into three groups, (a) injecting free ICG solution into the tail veins of mice; (b) injecting ICG labelled GVs solution into the tail veins of mice; and (c) injecting ICG labelled PH-GVs solution into the tail veins of mice. Fluorescent imagines were acquired at 0, 0.5, 1, 2, 4, 8, 12, 24 and 48 h after injection using IVIS Lumina II (Caliper Life Sciences, USA; Excitation Filter: 780 nm, Emission Filter: 800 nm).
At the time of highest accumulation after one-dose injection, SCC7 tumors and normal organs (hearts, livers, spleens, kidneys, lungs and muscles) were collected for acquisition of Fluorescent signal intensity.

[2] = system: MCF-7 cells; assay: Cell apoptosis after PDT by Annexin V/PI flow cytometry; assay type: cell-based, Human; conditions: PDT (PpIX plus laser)
Experimental: (§1) Photodynamic therapy setup: Cells were exposed to laser with the power of 100 mW/cm^2 for 5 min. The light source with a wavelength of 396 nm that was generated by an optical fiber was collimated to an aperture and irradiated to the 35 mm cell culture dish. The position of the cell culture plate was manually controlled by a dual-axis electric linear platform. After the treatment, cells were cultured in fresh medium for 4 h and then prepared for different analyses.
Cell apoptosis test: Cells were seeded at a density of 5×10^5 cells in 6-cm dishes and incubated for 24 h. Alexa Fluor 488 Annexin V/Dead Cell Apoptosis Kit (Thermo Fisher Scientific) was used to measure cell apoptosis according to the manufacturer's instructions. Cells were collected and incubated with 5 μL of the annexin V conjugate and 1 μL of the PI working solution at room temperature for 15 min. The cells were analyzed by FACS Calibur flow cytometer and BD Accuri C6 Software (Becton-Dickinson, USA).

[3] = system: MCF-7 cells; assay: PDT cytotoxicity by CCK-8 assay; assay type: cell-based, Human
Experimental: as §1
Cell culture: Human breast cancer cell line (MCF-7) was obtained from the Shanghai Cell Bank. […]
Cell viability test: In the pilot study, MCF-7 cells were divided randomly into eight groups: (1) control, (2) laser alone, (3) PpIX alone, (4) PpIX plus laser (PDT), (5) PpIX+GVs+laser (PDT+GVs), (6) PpIX+oxyGVs+laser (PDT+oxy-GVs), (7) GVs+laser, and (8) oxyGVs+laser. […] Cell viability at the different time points following PDT was determined using a Cell Counting Kit-8 (Sigma-Aldrich) according to the manufacturer's instructions. […] Cytotoxicity was determined by adding 10 μl CCK-8 reagent per well for 1 h at 37° C. in 5% CO2. The absorbance of the treated samples against a blank control was measured at 450 nm as the detection wavelength. The viability of treated cells was determined by comparing to the untreated ones in the control group.

[4] = Singlet oxygen generation in cell free system under ultrasound (SOSG); conditions: alone; PpIX 10 μM, GVs 2 nM
Experimental: SDT setup: 1 MHz planar ultrasound transducer with diameter of 5 cm (Olympus, Tokyo, Japan) was used for sonification in this study. Function generator (AFG 3251, Tektronix Company, Oregon, USA) and power amplifier (Model 500 A250 CAR; Souderton, Pa., USA) were used to generate ultrasonic pulses. Cells were exposed to ultrasound 10 cm away from transducer coupled by degassed deionized water at 25° C. Acoustic intensity and field were characterized by hydrophone (HGL-200; Onda, Sunnyvale, Calif., USA). The spatial peak temporal average intensity was measured to be 8 W/cm^2; the duty cycle was 20% with fixed pulse repetition frequency (PRF) of 1000 Hz. The overall sonification duration was 5 min. The temperature increase in cell-culture experiment solution was controlled within 2.5° C. After the ultrasound treatment, cells were cultured in fresh medium for 4 h and then prepared for different analyses.
Generation of singlet oxygen: SOSG (10 μM) was used to detect singlet oxygen generation. The solution was exposed to ultrasound and protected from light during the exposure time. The fluorescence intensity of SOSG was measured by microplate reader at an excitation wavelength of 488 nm and an emission wavelength of 530 nm.

Compound	fluorescence at tumor sites (in vivo imaging) ([1]; after intravenous injection, PH-GVs at 8 h)	fluorescence signals in the normal organs (in vivo imaging) ([1]; early time points (0.5-2 h) for ICG/GVs, up to 8 h for PH-GVs)	viable cells [2] [%]	effects on cell viability ([3]; PpIX alone, no laser)	cell viability ([3]; PpIX+laser (ALA-PDT), 4 h following PDT) [%]	SOSG fluorescence intensity before and after ultrasound treatment [4]
CC1(C)C(/C=C/C=C/C=C/C=C2\N(CCCCS(=O)(=O)[O-])c3ccc4ccccc4c3C2(C)C)=[N+](CCCCS(=O)(=O)[O-])c2ccc3ccccc3c21.[Na+] [ICG]	no strong fluorescence signal	considerable fluorescence signals				
C=CC1=C(C)c2cc3[nH]c(cc4[nH]c(cc5nc(cc1n2)C(C)=C5C=C)c(C)c4CCC(=O)O)c(CCC(=O)O)c3C [PpIX]			74.7	no effects	75	increased significantly
